# The source made the active and inactive calls. The calls are words filed in the database; no cut-off is given here.
# Key:
# HCT-116 [1] = assay: Antiproliferative activity against human HCT116 cells after 72 hrs by MTT assay; type: functional, cell-based; conditions: HCT-116, 72 h
# MCF7 = assay: Antiproliferative activity against human MCF7 cells after 72 hrs by MTT assay; type: functional, cell-based; conditions: MCF7, 72 h
# A549 = assay: Antiproliferative activity against human A549 cells after 72 hrs by MTT assay; type: functional, cell-based; conditions: A549, 72 h
# [2] = Antiproliferative activity against human HBMEC cells after 72 hrs by MTT assay; type: cell-based
# L02 = assay: Antiproliferative activity against human LO2 cells after 72 hrs by MTT assay; type: cell-based; conditions: L02, 72 h
# [3] = Antiproliferative activity against human CCD-841 cells after 72 hrs by MTT assay; type: cell-based; conditions: CCD-841, 72 h
# HaCaT = assay: Antiproliferative activity against human HaCaT cells after 72 hrs by MTT assay; type: cell-based
# BEAS-2B = assay: Antiproliferative activity against human BEAS2B cells after 72 hrs by MTT assay; type: functional, cell-based
# Bel-7402 = assay: Antiproliferative activity against human Bel7402 cells after 72 hrs by MTT assay; type: functional, cell-based; conditions: Bel-7402, 72 h
# [4] = Antiproliferative activity against adriamycin-resistant human Bel7402/ADR cells after 72 hrs by MTT assay; type: functional; conditions: Bel-7402, 72 h
# HCT-8 = assay: Antiproliferative activity against human HCT8 cells after 72 hrs by MTT assay; type: functional, cell-based; conditions: HCT-8, 72 h
# HCT-116 [5] = assay: Induction of apoptosis in human HCT116 cells assessed as cell shrinkage at 0.31 to 5 uM after 24 hrs by DAPI staining-based fluorescence microscopic method; type: functional
# HCT-116 [6] = assay: Induction of apoptosis in human HCT116 cells assessed as formation of apoptotic bodies at 0.31 to 5 uM after 24 hrs by DAPI staining-based fluorescence microscopic method; type: functional, cell-based
# HCT-116 [7] = assay: Induction of apoptosis in human HCT116 cells assessed as necrotic cells at 0.31 uM after 72 hrs by Annexin V-FITC/propidium iodide staining-based flow cytometric analysis (reference value: 0.76%); type: functional
# HCT-116 [8] = assay: Induction of apoptosis in human HCT116 cells assessed as late apoptotic cells at 0.31 uM after 72 hrs by Annexin V-FITC/propidium iodide staining-based flow cytometric analysis (reference value: 1.08%); type: functional
# HCT-116 [9] = assay: Induction of apoptosis in human HCT116 cells assessed as early apoptotic cells at 1.25 uM after 72 hrs by Annexin V-FITC/propidium iodide staining-based flow cytometric analysis (reference value: 5.30%); type: functional
# HCT-116 [10] = assay: Induction of apoptosis in human HCT116 cells assessed as necrotic cells at 5 uM after 72 hrs by Annexin V-FITC/propidium iodide staining-based flow cytometric analysis (reference value: 0.76%); type: functional
# HCT-116 [11] = assay: Induction of apoptosis in human HCT116 cells assessed as early apoptotic cells at 5 uM after 72 hrs by Annexin V-FITC/propidium iodide staining-based flow cytometric analysis (reference value: 5.30%); type: functional
# HCT-116 [12] = assay: Induction of apoptosis in human HCT116 cells assessed as viable cells at 5 uM after 72 hrs by Annexin V-FITC/propidium iodide staining-based flow cytometric analysis (reference value: 92.86%); type: functional; conditions: HCT-116, 72 h, read-out: Activity
# HCT-116 [13] = assay: Disruption of mitochondrial membrane potential in human HCT116 cells assessed as intact mitochondrial membrane at 5 uM after 72 hrs by JC1 staining-based flow cytometry method (reference value: 0.33%); type: functional
# HCT-116 [14] = assay: Disruption of mitochondrial membrane potential in human HCT116 cells assessed as collapse of mitochondrial membrane potential at 5 uM after 72 hrs by JC1 staining-based flow cytometry method (reference value: […]); type: functional
# HCT-116 [15] = assay: Induction of intracellular ROS generation in human HCT116 cells at 0.31 uM after 72 hrs by DCF-DA-dye based fluorescence microscopy (reference value: 2.74%); type: functional
# HCT-116 [16] = assay: Induction of intracellular ROS generation in human HCT116 cells at 1.25 uM after 72 hrs by DCF-DA-dye based fluorescence microscopy (reference value: 2.74%); type: functional
# [17] = target: Cellular tumor antigen p53 (Homo sapiens) (UniProt P04637); assay: Activation of p53 in human HCT116 cells assessed as downregulation of Bcl2 expression up to 5 uM after 48 hrs by Western blot analysis; type: cell-based
# Chain of Cellular tumor antigen p53 (Homo sapiens) (P04637 whole entry, looked up): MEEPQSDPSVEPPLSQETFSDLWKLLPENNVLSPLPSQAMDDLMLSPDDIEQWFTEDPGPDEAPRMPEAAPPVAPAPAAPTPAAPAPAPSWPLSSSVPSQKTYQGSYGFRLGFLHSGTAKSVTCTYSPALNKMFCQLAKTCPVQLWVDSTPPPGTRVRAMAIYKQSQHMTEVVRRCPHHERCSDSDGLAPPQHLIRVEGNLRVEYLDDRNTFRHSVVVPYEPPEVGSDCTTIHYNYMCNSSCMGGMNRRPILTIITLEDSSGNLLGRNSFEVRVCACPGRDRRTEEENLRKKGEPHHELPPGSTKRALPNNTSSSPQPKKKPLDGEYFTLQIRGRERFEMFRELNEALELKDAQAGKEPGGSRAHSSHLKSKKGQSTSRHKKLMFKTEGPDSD
# [18] = target: Cellular tumor antigen p53 (Homo sapiens) (UniProt P04637); assay: Activation of p53 in human HCT116 cells assessed as increase in cytochrome-c expression up to 5 uM after 48 hrs by Western blot analysis; type: cell-based
# HCT-116 [19] = assay: Cytotoxicity against human HCT116 cells up to 5 uM after 72 hrs in presence of caspase inhibitor z-VAD-fmk by MTT assay; type: functional, cell-based
# HCT-116 [20] = assay: Cytotoxicity against human HCT116 cells transfected with p53-siRNA up to 5 uM after 72 hrs by MTT assay; type: functional, cell-based
# HCT-116 [21] = assay: Cytotoxicity in human HCT116 cells pretreated with DFO followed by compound addition up to 5 uM measured after 72 hrs by MTT assay; type: functional, cell-based
# HCT-116 [22] = assay: Cytotoxicity in human HCT116 cells pretreated with Fe3+ followed by compound addition up to 5 uM measured after 72 hrs by MTT assay; type: functional, cell-based
# HCT-116 [23] = assay: Cytotoxicity against human HCT116 cells pretreated with Na+ followed by compound addition up to 5 uM measured after 72 hrs by MTT assay; type: functional, cell-based
# HCT-116 [24] = assay: Cytotoxicity against human HCT116 cells pretreated with K+ followed by compound addition up to 5 uM measured after 72 hrs by MTT assay; type: functional, cell-based
# HCT-116 [25] = assay: Cytotoxicity against human HCT116 cells pretreated with Cu2+ followed by compound addition up to 5 uM measured after 72 hrs by MTT assay; type: functional, cell-based
# HCT-116 [26] = assay: Cytotoxicity against human HCT116 cells pretreated with Mn2+ followed by compound addition up to 5 uM measured after 72 hrs by MTT assay; type: functional, cell-based
# HCT-116 [27] = assay: Cytotoxicity against human HCT116 cells pretreated with Ca2+ followed by compound addition up to 5 uM measured after 72 hrs by MTT assay; type: functional, cell-based
# HCT-116 [28] = assay: Cytotoxicity against human HCT116 cells pretreated with Al3+ followed by compound addition up to 5 uM measured after 72 hrs by MTT assay; type: functional, cell-based
# HCT-116 [29] = assay: Induction of lipid peroxidation in human HCT116 cells assessed as increase in MDA levels up to 5 uM; type: functional
# HCT-116 [30] = assay: Antitumor activity against human HCT116 cells xenografted in BALB/c nude mouse assessed as decrease in tumor weight at 20 mg/kg, iv administered once per day for 14 days and measured every 2 days; type: functional; design: scale not given: the % may be the effect or the level left
# Mus musculus [31] = assay: Toxicity in BALB/c nude mouse xenografted with human HCT116 cells assessed as change in body weight at 10 to 20 mg/kg, iv administered once per day for 14 days and measured every 2 days; type: organism-based; conditions: in vivo
# Mus musculus [32] = assay: Toxicity in BALB/c nude mouse xenografted with human HCT116 cells assessed as abnormality in spleen at 10 to 20 mg/kg, iv administered once per day by hematoxylin and eosin staining-based microscopic method; type: organism-based; conditions: in vivo
# Mus musculus [33] = assay: Toxicity in BALB/c nude mouse xenografted with human HCT116 cells assessed as abnormality in kidney at 10 to 20 mg/kg, iv administered once per day by hematoxylin and eosin staining-based microscopic method; type: organism-based; conditions: in vivo
smiles,measurement,setting,value
CC(=O)N[C@H]1[C@H](O[C@H]2CC[C@]3(C)[C@H]4CC=C5[C@@H]6CC(C)(C)CC[C@]6(C(=O)OCc6cn(-c7cccc(C(C)=O)c7)nn6)CC[C@@]5(C)[C@]4(C)CC[C@H]3C2(C)C)O[C@H](CO[C@@H]2OC[C@H](O)[C@H](O)[C@@H]2O)[C@@H](O)[C@@H]1O,IC50,HCT-116 [1],5.19 µM
same,IC50,MCF7,10.5 µM
same,IC50,A549,9.18 µM
same,IC50,[2],32.2 µM
same,IC50,L02,33.2 µM
same,IC50,[3],27.8 µM
same,IC50,HaCaT,37.1 µM
same,IC50,BEAS-2B,20.2 µM
same,IC50,Bel-7402,5.21 µM
same,IC50,[4],5.83 µM
same,IC50,HCT-8,6.78 µM
same,Activity,HCT-116 [5],Active
same,Activity,HCT-116 [6],Active
same,Activity,HCT-116 [7],2.62%
same,Activity,HCT-116 [8],12.51%
same,Activity,HCT-116 [9],3.42%
same,Activity,HCT-116 [10],1.86%
same,Activity,HCT-116 [11],39.27%
same,viability at 5 µM,HCT-116 [12],38.5%
same,Activity,HCT-116 [13],40.13%
same,Activity,HCT-116 [14],59.87%
same,Activity,HCT-116 [15],12.87%
same,Activity,HCT-116 [16],20.35%
same,Activity,[17],Active
same,Activity,[18],Active
same,Activity,HCT-116 [19],inactive
same,Activity,HCT-116 [20],inactive
same,Activity,HCT-116 [21],inactive
same,Activity,HCT-116 [22],Active
same,Activity,HCT-116 [23],Active
same,Activity,HCT-116 [24],Active
same,Activity,HCT-116 [25],Active
same,Activity,HCT-116 [26],Active
same,Activity,HCT-116 [27],Active
same,Activity,HCT-116 [28],Active
same,fold change (FC),HCT-116 [29],>2
same,Activity,HCT-116 [30],71.8%
same,Activity,Mus musculus [31],Non-Toxic
same,Activity,Mus musculus [32],Non-Toxic
same,Activity,Mus musculus [33],Non-Toxic
